Values after ≈ are worked out from the molar mass of the structure shown. Read-outs that look alike come from different tables or passages of the source. Marks after values point to notes of the source that are not given here. Square brackets hold non-standard residues; d marks the D form. Peptide text beside a SMILES is read from it. Nphe = O=C(O)CNCc1ccccc1; NPrGly = CCCNCC(=O)O; Sar = CNCC(=O)O Where only a bound is given, the exact number is not on record here.

For series [1], the system named is P. aeruginosa PA103 T3SS (ExoU secretion). It counts as cell-based, Pseudomonas aeruginosa.
The nature of another series: Kinetic solubility. It is filed as physicochemical. The protocol:
[…] Then, […] of 15 mM stock compound was added to make a solution of 120 μM final concentration with 0.8% DMSO. The solution was shaken at 37°C for ∼2 h. The solution was passed over a 0.7- μM glass fiber filter. Then, the solution was diluted 1:4 in acetonitrile to crash out any proteins. The solution was centrifuged at 500 × g for 10 min. Avoiding the pellet, 10 μl of supernatant was added to a fresh plate with 90 μl of acetonitrile. The final dilution is 40 times lower. Next, 10 μl of 40× dilution of solution was injected on the Orbi-trap. A 1 μM standard was used for the ratiometric comparison, and the assay was done in triplicate.

For series [2], the system named is Yersinia pseudotuberculosis Ysc T3SS. As to conditions: cited from earlier work; for IC50: culture-based secretion assay.
Series [3] concerns Pseudomonas aeruginosa Psc T3SS. Conditions: culture-based secretion assay, cited from earlier work.
The subject of series [4] is Hrc1 T3SS, Pseudomonas syringae. Conditions: biochemical assay, cited from earlier work; for lowest known inhibitory concentration (∼), hrpA: ref [108].
In series [5] the test system is Chlamydiales T3SS, Chlamydia. Conditions: cell-based infection assay, cited from earlier work.
In series [6] the test system is Salmonella enterica Typhimurium SPI-1 T3SS. As to conditions: cited from earlier work.
In series [7] the test system is Y. pseudotuberculosis twin arginine translocation (Tat) system. It is filed as cell-based, Yersinia pseudotuberculosis. As to conditions: culture optical density, 4 and 6 h.
For series [8], the system named is Pseudomonas aeruginosa Psc T3SS. As to conditions: cited from earlier work.
Where [9] appears, read: read-out: IC50, inhibition of secretion of T3SS effector ExoU.

On to `CCCN1CC(=O)N(Cc2ccccc2)CC(=O)N[C@H](C)C(=O)N[C@@H]([C@@H](C)CC)C(=O)N[C@@H](CC(C)C)C(=O)N[C@H](Cc2ccccc2)C1=O` [1EpDN 3Ala, EpD1,2N 3Ala] (cyclo(IL[dF][NPrGly][Nphe][dA])), for which, in series [1] (read-out: IC50 (Table S1)), the IC50 is above 1000 µM. In the series “Kinetic solubility”, this compound had a solubility of 180 µM (≈ 124 µg/mL).

Turning to `CCCN1CC(=O)N(Cc2ccccc2)CC(=O)N[C@H](CC(C)C)C(=O)N[C@@H](C)C(=O)N[C@@H](CC(C)C)C(=O)N[C@H](Cc2ccccc2)C1=O` [1EpDN 4Ala, EpD1,2N 4Ala] (cyclo(AL[dF][NPrGly][Nphe][dL])), the concentration for half-maximal inhibition (IC50) in [1] (read-out: IC50 (Table S1)) is above 1000 µM. The kinetic solubility in “Kinetic solubility” was 75 µM (≈ 51.8 µg/mL).

`CCCN1CC(=O)N(Cc2ccccc2)CC(=O)N[C@H](CC(C)C)C(=O)N[C@@H]([C@@H](C)CC)C(=O)N[C@@H](C)C(=O)N[C@H](Cc2ccccc2)C1=O` [1EpDN 5Ala, EpD1,2N 5Ala] (cyclo(A[dF][NPrGly][Nphe][dL]I)): the 50% inhibitory concentration (IC50) in series [1] (read-out: IC50 (Table S1)) was above 1000 µM. The compound also returned a kinetic solubility in the series “Kinetic solubility” of 127 µM (≈ 87.7 µg/mL).

Take `CCCN1CC(=O)N(Cc2ccccc2)CC(=O)N[C@H](CC(C)C)C(=O)N[C@@H]([C@@H](C)CC)C(=O)N[C@@H](CC(C)C)C(=O)N[C@H](C)C1=O` [1EpDN 6Ala, EpD1,2N 6Ala] (cyclo(IL[dA][NPrGly][Nphe][dL])): the IC50 in series [1] (read-out: IC50 (Table S1)) is above 1000 µM. Besides, the kinetic solubility in the series “Kinetic solubility” came to 125 µM (≈ 82.1 µg/mL).

As for `CCCN1CC(=O)N(Cc2ccccc2)CC(=O)N[C@H](CC(C)C)C(=O)N[C@@H]([C@@H](C)CC)C(=O)N[C@@H](CC(C)C)C(=O)N[C@H](Cc2ccccc2)C1=O` [1EpDN, EpD1,2N] (cyclo(IL[dF][NPrGly][Nphe][dL])), the IC50 is 8.2 µM in series [1] (read-out: IC50 (Table S1)); around 8 µM in series [1] (setting [9]); 14.3 µM in [2] (ref [22], read-out: IC50, YopE secretion); 8.2 µM in series [3] (ref [22], read-out: IC50, ExoU secretion). Also, the solubility in the series “Kinetic solubility” is 14 to 17 µM (≈ 10.3 to 12.5 µg/mL).

Turning to `CCCN1CC(=O)N(Cc2ccccc2)CC(=O)N[C@@H](CC(C)C)C(=O)N[C@@H]([C@@H](C)CC)C(=O)N[C@@H](CC(C)C)C(=O)N[C@H](Cc2ccccc2)C1=O` [2EpDN, 2-EpD1,2N] (cyclo(IL[dF][NPrGly][Nphe]L)), in series [1] (read-out: IC50 (Table S1)), the IC50 came to 15.3 µM. The compound further showed a kinetic solubility in the series “Kinetic solubility” of 12 µM (≈ 8.8 µg/mL).

For `CCCN1CC(=O)N(Cc2ccccc2)CC(=O)N[C@H](CC(C)C)C(=O)N[C@@H]([C@@H](C)CC)C(=O)N[C@H](CC(C)C)C(=O)N[C@H](Cc2ccccc2)C1=O` [3EpDN, 3-EpD1,2N] (cyclo(I[dL][dF][NPrGly][Nphe][dL])), in [1] (read-out: IC50 (Table S1)), the IC50 came out at 16 µM. In addition, the kinetic solubility in the series “Kinetic solubility” is 18 µM (≈ 13.2 µg/mL).

Turning to `O=C(O)c1ccc(O)cc1` [4-Hydroxybenozic acid], the “lowest known inhibitory concentration (∼), hrpA” value in [4] is listed as “∼2.5 mM hrpA^e”.

Regarding `CC[C@H](C)[C@@H]1NC(=O)[C@H](CC(C)C)NC(=O)CN(Cc2ccccc2)C(=O)CN(C)C(=O)[C@@H](Cc2ccccc2)NC(=O)[C@@H](CC(C)C)NC1=O` [4EpDN 1Sar, 4-EpD1,2N 1Sar] (cyclo(I[dL][dF][Sar][Nphe]L)), the “T3SS inhibitory activity (ExoU secretion), in words” value in [1] is “significantly reduced activity”. The IC50 in [1] (read-out: IC50 (Table S1)) is 19 µM. The solubility in “Kinetic solubility” (DMEM (no antibiotics)) turned out to be 6 µM (≈ 4.23 µg/mL); in “Kinetic solubility” (M9), 4 µM (≈ 2.82 µg/mL).

`CCCN1CC(=O)N(Cc2ccccc2)CC(=O)N[C@@H](CC(C)C)C(=O)N[C@@H]([C@@H](C)CC)C(=O)N[C@H](CC(C)C)C(=O)N[C@@H](Cc2ccccc2)C1=O` [5EpDN, 5-EpD1,2N] (cyclo(F[NPrGly][Nphe]LI[dL])): the 50% inhibitory concentration (IC50) in series [1] (read-out: IC50 (Table S1)) turned out to be 6.3 µM. The compound further returned a kinetic solubility in “Kinetic solubility” of 13 µM (≈ 9.53 µg/mL).

As for `CCCN1CC(=O)N(Cc2ccccc2)CC(=O)N[C@H](CC(C)C)C(=O)N[C@@H]([C@@H](C)CC)C(=O)N[C@H](CC(C)C)C(=O)N[C@@H](Cc2ccccc2)C1=O` [6EpDN, 6-EpD1,2N] (cyclo(F[NPrGly][Nphe][dL]I[dL])), the half-inhibitory concentration (IC50) in series [1] (read-out: IC50 (Table S1)) was above 1000 µM. For the same compound, the solubility (kinetic) in “Kinetic solubility” was 1 µM (≈ 0.733 µg/mL).

Take `CCCN1CC(=O)N(Cc2ccccc2)CC(=O)N[C@H](CC(C)C)C(=O)N[C@@H]([C@@H](C)CC)C(=O)N[C@@H](CC(C)C)C(=O)N[C@@H](Cc2ccccc2)C1=O` [8EpDN, 8-EpD1,2N] (cyclo(F[NPrGly][Nphe][dL]IL)): the half-maximal inhibitory concentration (IC50) in series [1] (read-out: IC50 (Table S1)) was found to be 41.5 µM. For the same compound, in the series “Kinetic solubility”, the kinetic solubility stood at 1 µM (≈ 0.733 µg/mL).

On to `CCCN1CC(=O)N(Cc2ccccc2)CC(=O)N[C@@H](CC(C)C)C(=O)N[C@H]([C@H](C)CC)C(=O)N[C@H](CC(C)C)C(=O)N[C@@H](Cc2ccccc2)C1=O` [9EpDN, 9-EpD1,2N] (cyclo(F[NPrGly][Nphe]L[dI][dL])), for which the results for the half-maximal inhibitory concentration (IC50) in [1] (read-out: IC50 (Table S1)) and in series [1] (setting [9]) were 12.8 µM and around 13 µM, respectively. In “Kinetic solubility”, this compound displayed a kinetic solubility of 10 µM (≈ 7.33 µg/mL).

On to `O=c1cc(-c2ccccc2)oc2cc(O)c(O)c(O)c12` [Baicalein], for which the IC50 is 500 µM in series [5] (ref [84], [85]) and 3.6 µM in [6] (culture-based secretion assay, ref [84], [85], read-out: IC50, SopE2 secretion).

For the compound `Cc1ccc(S(=O)(=O)/C=C/C#N)cc1` [Bay 11-7082], the “growth of SufI-β-lactamase Tat reporter bacteria in penicillin G / Tat inhibition, in words” value in [7] is given as “strongly reduced growth of bacteria”.

Regarding `CCOc1cc(CN2N=C(C(=O)Nc3ccc(F)cc3F)SCC2=O)ccc1O` [Fluorothiazinon], in series [5] (ref [93]–[96]), the “lowest known inhibitory concentration (∼), Chlamydia” value is recorded as “∼25^c μM”. In [3] (ref [93]–[96]), the “lowest known inhibitory concentration (∼), ExoT, ExoY secretion” value is recorded as “∼20 μg/ml ExoT^b ExoY^b”. In addition, the “lowest known inhibitory concentration (∼), SipA” value in series [6] (footnote printed as a, ref [93]–[96]) was around 50 µM.

As for `CCCCc1ccc(C(=O)O)nc1` [Fusaric acid], in [6] (culture-based secretion assay, ref [101], read-out: IC50, SipC secretion), the IC50 is 53.5 µM.

Turning to `O=C(N/N=C/c1cc(Br)cc(Br)c1O)c1ccc([N+](=O)[O-])cc1` [INP0007], the “lowest known inhibitory concentration (∼), YopE secretion” value in [2] is “∼50 YopE^b μM”. Further, the “lowest known inhibitory concentration (∼), SipAC secretion” value in series [6] (culture-based secretion assay, ref [64], [72]) was “∼100 SipAC^b μM”.

On to `Cc1cc(Cl)cc(/C=N/NC(=O)c2ccc(O)cc2O)c1O` [INP0341], for which the “lowest known inhibitory concentration (∼), Chlamydia” value in [5] (ref [68], [70]) is reported as “∼20^c μM”. In addition, in series [8] (cell-based infection assay, ref [68], [70]), the “lowest known inhibitory concentration (∼), PA” value is on record as “∼80^c μM”.

In the case of `O=C(N/N=C/c1c(O)ccc2ccccc12)c1ccc(Cl)cc1` [INP0400], the “lowest known inhibitory concentration (∼), Chlamydia” value in series [5] (ref [70]) is listed as “∼20^c μM”.

As for `O=C(N/N=C/c1ccc(O)c(O)c1O)c1ccccc1` [INP0401], the “lowest known inhibitory concentration (∼), hrp” value in series [4] (ref [78]) is on record as “∼50 hrp^e μM”.

As to `CC(C)=CCc1c(O)cc2oc(-c3ccc(O)cc3)c(O)c(=O)c2c1O` [Licoflavonol], in series [6] (culture-based secretion assay, ref [86]), the “lowest known inhibitory concentration (∼), SipC secretion” value was “∼50 SipC^b μM”.

With `CC(Oc1ccc(Cl)cc1Cl)C(=O)NCc1ccc2c(c1)OCO2` (centres unmarked) [MBX1641], the “lowest known inhibitory concentration (∼), Chlamydia” value in series [5] (ref [65]) is “∼10^c μM”. In addition, in series [3] (ref [65], read-out: IC50, ExoS secretion), the IC50 is 10 µM.

With `CCC(Oc1ncc(Cl)cc1Cl)C(=O)NCc1ccc2sccc2c1` (centres unmarked) [MBX2401], in [3] (ref [44], read-out: IC50, ExoS secretion), the IC50 was 1.2 µM.

As to `O=C(N/N=C/c1cc(Br)cc(Br)c1O)c1cccnc1` [ME0052], the “lowest known inhibitory concentration (∼), Yops secretion” value in [2] is “∼20 Yops^b μM”.

Consider `COc1c2cc(c(O)c1OC)CCCC[C@@H](O)CCc1ccc(O)c-2c1` [Myricanol], for which the IC50 in series [6] (footnote printed as a, ref [107], read-out: IC50, SipC) is 41.3 µM.

For `O=C1C=CC(=O)N1c1ccccc1` [N-phenylmaleimide], in series [7], the “growth of SufI-β-lactamase Tat reporter bacteria in penicillin G / Tat inhibition, in words” value was “strongly reduced growth of bacteria”.

As to `COc1ccc(C(C)=O)c(O)c1` [Paeonol], the “lowest known inhibitory concentration (∼), Sips secretion” value in series [6] (culture-based secretion assay, ref [99]) was “∼95 Sips^b μM”.

`C[n+]1cc2c3c(ccc2c2ccc4cc5c(cc4c21)OCO5)OCO3` [Sanguinarine chloride]: the “lowest known inhibitory concentration (∼), SipA” value in [6] (footnotes b and f: secretion assay and translocation assay, ref [88]) was “∼5 SipA^b^f μM”.

As to `COc1cc(C=O)cc(OC)c1O` [Syringaldehyde], the “lowest known inhibitory concentration (∼), Sips secretion” value in [6] (culture-based secretion assay, ref [100]) is “∼180 Sips^b μM”.

On to `COc1cc(C(=O)O)ccc1O` [Vanillic acid], for which the “lowest known inhibitory concentration (∼), hrpA” value in [4] is listed as “∼2.5 mM hrpA^e”.

`Cc1c(C)c2c(c(C)c1O)CC[C@@](C)(CCC[C@H](C)CCC[C@H](C)CCCC(C)C)O2` [α-tocopherol]: the “lowest known inhibitory concentration (∼), PA, ExoY” value in [8] (footnotes c and f: cell-based infection assay, ExoY translocation assay, ref [105]) is listed as “∼10^c ExoY^f μM”.

For (-)-Hopeaphenol, in series [5] (ref [97]), the “lowest known inhibitory concentration (∼), Chlamydia” value is reported as “∼25^c μM”. Moreover, the IC50 in series [2] (ref [97], read-out: IC50, YopD secretion) was 3.3 µM. Further, the “lowest known inhibitory concentration (∼), ExoS secretion” value in [3] (ref [97]) is reported as “∼50 ExoS^b μM”.

Source of the values: publication PMC8373237 (Antimicrobial Agents and Chemotherapy, 2021).
